Legend:
CCK receptor (pancreas) = target: T1, CCK receptor (pancreas) (Rattus norvegicus, UniProt P30551); assay: CCK Receptor Binding (Pancreas), inhibition of 125I-CCK-8 binding; design: species or system rat (male Sprague-Dawley); conditions: rat pancreas membranes, 50 pM 125I-CCK-8, pH 6.5, 25° C., 2 hours
T1 construct: The whole pancreas was dissected free of fat tissue and was homogenized; from tissue; host or cells: rat whole pancreas membranes
T1 sequence (P30551 1-444): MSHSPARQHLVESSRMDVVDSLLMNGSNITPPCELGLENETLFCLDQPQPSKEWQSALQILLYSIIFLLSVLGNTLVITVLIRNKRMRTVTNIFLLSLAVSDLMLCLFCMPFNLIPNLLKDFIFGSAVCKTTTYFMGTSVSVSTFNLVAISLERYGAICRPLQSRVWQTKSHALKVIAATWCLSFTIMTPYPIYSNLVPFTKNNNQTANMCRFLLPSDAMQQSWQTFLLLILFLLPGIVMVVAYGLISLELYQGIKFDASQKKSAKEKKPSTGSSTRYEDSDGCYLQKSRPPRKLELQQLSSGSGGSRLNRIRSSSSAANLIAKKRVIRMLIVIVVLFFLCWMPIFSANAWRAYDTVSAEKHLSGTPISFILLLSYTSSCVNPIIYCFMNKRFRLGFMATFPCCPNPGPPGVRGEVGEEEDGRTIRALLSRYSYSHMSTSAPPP
Description: 1. CCK Receptor Binding (Pancreas)
CCK-8 sulphated was radiolabelled with ^125 I-Bolton Hunter reagent (2000 Ci/mmole). Receptor binding was performed according to Chang and Lotti (Proc. Natl. Acad. Sci. 83, 4923-4926, 1986) with minor modifications.
Male Sprague-Dawley rats (150-200 g) were sacrificed by decapitation. The whole pancreas was dissected free of fat tissue and was homogenized in 25 volumes of ice-cold 10 mM N-2-hydroxyethyl-piperazine-N'-2-ethane sulphonic acid (HEPES) buffer with 0.1% soya bean trypsin inhibitor (pH 7.4 at 25° C.) with a Kinematica Polytron. The homogenates were centrifuged at 47,800 g for 10 min. Pellets were resuspended in 10 volumes of binding assay buffer (20 mM (HEPES)), 1 mM ethylene glycol-bis-(β-aminoethylether-N,N'-tetraacetic acid) (EGTA), 5 mM MgCl2, 150 mM NaCl, bacitracin 0.25 mg/ml, soya bean trypsin inhibitor 0.1 mg/ml, and bovine serum albumin 2 mg/ml pH 6.5 at 25° C.) using a Teflon (trademark) homogenizer, 15 strokes at 500 rpm. The homogenate was further diluted in binding assay buffer to give a final concentration of 0.5 mg original wet weight/1 ml buffer. […] The radioactivity on the filters was counted with a LKB gamma counter. […]

CCK receptor (brain) = target: T2, CCK receptor (brain) (Cavia porcellus, UniProt H0VZC5); assay: CCK Receptor Binding (Brain), inhibition of 125I-CCK-8 binding; design: species or system guinea pig (male Hartley); conditions: guinea pig cortex membranes, 50 pM 125I-CCK-8, pH 6.5, 25° C., 2 hours
T2 construct: the cortex was removed and homogenized in 25 mL ice-cold 0.32M sucrose; from tissue; host or cells: guinea pig brain cortex P2 membranes
T2 sequence (H0VZC5 entry or part of it): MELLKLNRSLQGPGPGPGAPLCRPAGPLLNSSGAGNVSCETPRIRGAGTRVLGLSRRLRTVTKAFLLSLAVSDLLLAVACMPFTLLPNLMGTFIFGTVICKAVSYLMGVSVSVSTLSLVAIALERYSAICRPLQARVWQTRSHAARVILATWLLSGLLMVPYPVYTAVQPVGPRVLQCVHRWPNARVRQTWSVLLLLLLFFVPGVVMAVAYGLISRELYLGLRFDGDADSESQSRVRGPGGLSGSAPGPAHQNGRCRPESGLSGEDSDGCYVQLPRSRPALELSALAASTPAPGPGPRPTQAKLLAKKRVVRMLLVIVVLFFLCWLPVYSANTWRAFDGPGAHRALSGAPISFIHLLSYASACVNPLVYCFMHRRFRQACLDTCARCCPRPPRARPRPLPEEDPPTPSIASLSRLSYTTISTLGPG
Description: 2. CCK Receptor Binding (Brain)
CCK-8 sulphated was radiolabelled and the binding was performed according to the description for the pancreas method with minor modifications.
Male Hartley guinea pigs (300-500 g) were sacrificed by decapitation and the cortex was removed and homogenized in 25 mL ice-cold 0.32M sucrose. The homogenates were centrifuged at 1000 g for 10 minutes and the resulting supernatant was recentrifuged at 20,000 g for 20 minutes. The P2 pellet was resuspended in binding assay buffer (20 mM HEPES, 5 mM MgCl2, 0.25 mg/ml bacitracin, 1 mM EGTA pH 6.5 at 25° C.), using a Teflon (trademark) homogenizer (5 strokes at 500 rpm) to give a final concentration of 10 mg original wet weight/1.2 ml buffer. For the binding assay, 50 μl of buffer (for total binding) or unlabelled CCK-8 sulphated to give a final concentration of 1 μM (for nonspecific binding) or the compounds of Formula I (for determination of inhibition of ^125 I-CCK-8 binding) and 50 μl of 500 pM ^125 I-CCK-8 (i.e. final concentration of 50 pM) were added to 400 μl of the membrane suspensions in microfuge tubes. All assays were run in duplicate. […] The radioactivity on the filters was counted with a LKB gamma counter. […]

Row | Compound | IC50 (CCK receptor (pancreas)) | IC50 (CCK receptor (brain))
1 | CN1C(=O)C(NC(=O)Nc2cccc(C(=O)NS(=O)(=O)c3ccccc3)c2)N=C(c2ccncc2)c2ccccc21 (racemic) [Example 1, N-[3(R,S)-2,3-Dihydro-1-methyl-2-oxo-5-(pyridin-4-yl)-1H-1,4-benzodiazepin-3-yl]-N'-[3-(phenylsulphonylaminocarbonyl)phenyl]urea] | 790 nM | 130 nM
2 | CC(C)S(=O)(=O)NC(=O)c1cccc(NC(=O)NC2N=C(c3ccncc3)c3ccccc3N(C)C2=O)c1 (racemic) [Example 2, N-[3(R,S)-2,3-Dihydro-1-methyl-2-oxo-5-(pyridin-4-yl)-1H-1,4-benzodiazepin-3-yl)-N'-[3-(isopropylsulphonylaminocarbonyl)phenyl]urea] | 1630 nM | 300 nM
